Measurements reported in paper PMC10096129, “Rational Design and Lead Optimisation of Potent Antimalarial Quinazolinediones and Their Cytotoxicity against MCF-7” (Molecules, 2023).
Where two headings read alike, the source gives them in different places.

Columns and labels:
P. falciparum 3D7 [1] = system: P. falciparum 3D7; set-up: method as in doi:10.3390/M1358; conditions: earlier report of the group; read-out: IC50 against P. falciparum 3D7; cited from earlier work
MCF-7 cells = test: Antiproliferative assay against MCF-7 (MTT, 72 h); type: cell-based, Human; conditions: for IC50: Homo sapiens, MCF7, MCF-7 cells, 72 h, MTT; for cytotoxicity against MCF-7 cells, in words: compared with the parent compound
Description: Human breast cancer cells (MCF-7) purchased from ATCC were seeded at 2 × 10^3 cells/well on a 96-well black flat-bottom plate and were cultured in high-glucose DMEM (Dulbecco’s modified Eagle medium) supplemented with 10% fetal bovine serum and 1% penicillin/streptomycin. The culture was incubated at 37 °C, 5% CO2 for 24 h. After the incubation period, the test compounds were added into the cell plate at serially diluted concentrations (20, 2, 0.2, 0.02, 0.002, and 0.0002 μM), and the culture was incubated for 72 h at 37 °C, 5% CO2. After the 72 h incubation, the cultured media containing compounds were removed, and the serum-free media containing MTT were added to the same well with additional incubation for 3 h at 37 °C, 5% CO2. After 3 h incubation, the serum-free media containing MTT were removed, and DMSO was added into the same well; the resulting solution was measured for its absorbance at 570 nm using a Multimode Microplate Reader (ENVISION) (PerkinElmer, USA). The IC50 value was calculated using GraphPad. Doxorubicin at 10 µM was used as a positive control in this assay.

P. falciparum 3D7 [2] = test: Antimalarial assay against P. falciparum 3D7 (48 h growth, DNA fluorescent dye); type: cell-based, Plasmodium falciparum; conditions: for IC50: Plasmodium falciparum
Description: Plasmodium falciparum strain 3D7 was cultured in complete medium (RPMI-1640 supplemented with 10% Albumax II) using O Rh^+ red blood cells in a microaerobic environment (5% CO2, 5% O2, 90% N2). IC50 assay plates were prepared using fourfold serially diluted test compounds in complete medium to a final volume of 50 μL. Then, 50 μL of parasite inoculum at 2% parasitemia ring stage and 1% hematocrit was added to each well and incubated for 48 h in a microaerobic environment. The assay was terminated by freezing at -20 °C before growth measurement. Parasite growth was measured adding 100 μL of lysis buffer supplemented with 1× DNA fluorescent dye (UltraPower, […], Tokyo, Japan), and the fluorescent signal was measured at 495/530 nm. The IC50 value was calculated by GraphPad Prism 9.0 software (La Jolla, California, USA) using the dose-response (four-parameter) function. Artemisinin at 1 μM and complete medium were used as positive and negative controls, respectively.

[3] = system: human ovarian cancer (SKOV3); set-up: method as in earlier work; conditions: patent; cited from earlier work
P. falciparum strains = system: P. falciparum strains; set-up: method as in PMID 24900261, PMID 26317851, PMID 28513586; conditions: multiple stages of the malaria parasite; cited from earlier work
[4] = Table 2, blood-stage P. falciparum 3D7, various amino-acid linkers, read-out: IC50 (µM) 3D7 ± SD
[5] = P. falciparum 3D7, read-out: antimalarial activity against 3D7
[6] = Table 3, blood-stage P. falciparum 3D7, various amine side chains, read-out: IC50 (µM) 3D7 ± SD

Structure (SMILES) | IC50 (MCF-7 cells) [µM] | IC50 (P. falciparum 3D7 [2]; [4]) [µM] | IC50 (P. falciparum 3D7 [2]; [6]) [µM] | antimalarial activity against 3D7, in words (P. falciparum 3D7 [2]; P. falciparum 3D7) | other results
CCOC(=O)c1sc(NC(=O)[C@H](C(C)C)n2c(=O)[nH]c3ccccc3c2=O)nc1OC [Compound 3] |  |  |  |  | cytotoxicity against SKOV3, in words [3]: highly potent cytotoxicity
COc1cccc(NCCn2c(=O)[nH]c3ccccc3c2=O)c1 [Compound 4] |  | > 10 |  |  | 
CC(C)[C@@H](C(=O)Nc1ccccc1)n1c(=O)[nH]c2ccccc2c1=O [Compound 18] | > 20 |  | 0.607 ± 0.03 | dramatic loss in the antimalarial activity | 
CC(C)[C@@H](C(=O)Nc1cccnc1)n1c(=O)[nH]c2ccccc2c1=O [Compound 19] | > 20 |  | 2.89 ± 0.401 | decrease in antimalarial activity | 
CC(C)[C@@H](C(=O)Nc1ccncc1)n1c(=O)[nH]c2ccccc2c1=O [Compound 20] | > 20 |  | 1.41 ± 0.115 | decrease in antimalarial activity | 
CC(C)[C@@H](C(=O)Nc1ccc(F)cc1)n1c(=O)[nH]c2ccccc2c1=O [Compound 22] | > 20 |  | 0.36 ± 0.034 | good antimalarial activity | 
CC(C)[C@@H](C(=O)Nc1ccc(F)c(F)c1)n1c(=O)[nH]c2ccccc2c1=O [Compound 23] | 9.74 |  | 0.038 ± 0.009 |  | cytotoxicity against MCF-7 cells, in words (MCF-7 cells): slightly higher cytotoxicity
CC(C)[C@@H](C(=O)Nc1ccc(Cl)cc1)n1c(=O)[nH]c2ccccc2c1=O [Compound 25] | 10.5 |  | 0.711 ± 0.038 | good antimalarial activity | 
CC(C)[C@@H](C(=O)Nc1ccc(Cl)c(Cl)c1)n1c(=O)[nH]c2ccccc2c1=O [Compound 26] | > 20 |  | 0.406 ± 0.034 | less potent antimalarial | cytotoxicity against MCF-7 cells, in words (MCF-7 cells): slightly higher cytotoxicity
CC(C)[C@@H](C(=O)Nc1ccc(F)c(Cl)c1)n1c(=O)[nH]c2ccccc2c1=O [Compound 27] | > 20 |  | 0.059 ± 0.012 |  | 
CC(C)[C@@H](C(=O)NCc1ccccc1)n1c(=O)[nH]c2ccccc2c1=O [Compound 28] | > 20 |  | > 10 | dramatic loss in the antimalarial activity | 
COc1ccc(NC(=O)[C@H](C(C)C)n2c(=O)[nH]c3ccccc3c2=O)cc1 [Compound 29] | > 20 |  | > 10 | dramatic loss in the antimalarial activity | 
COc1ccccc1CNC(=O)CCn1c(=O)[nH]c2ccsc2c1=O [MMV019066] |  |  |  |  | parasite growth inhibitory activity (P. falciparum strains): < 1 µM
COc1ccccc1CNC(=O)CCn1c(=O)[nH]c2ccccc2c1=O [MMV665916] |  |  |  |  | parasite growth inhibitory activity (P. falciparum strains): < 1 µM

Second part, led by results:

IC50 (MCF-7 cells) [µM] | IC50 (P. falciparum 3D7 [2]; [4]) [µM] | IC50 (P. falciparum 3D7 [2]; [6]) [µM] | Structure (SMILES) | antimalarial activity against 3D7, in words (P. falciparum 3D7 [2]; P. falciparum 3D7) | other results
17.5 | 0.219 ± 0.024 |  | COc1cccc(NC(=O)[C@H](C(C)C)n2c(=O)[nH]c3ccccc3c2=O)c1 [Compound 2] |  | IC50 (P. falciparum 3D7 [1]): ~0.2 µM
 | > 10 |  | COc1cccc(NC(=O)Cn2c(=O)[nH]c3ccccc3c2=O)c1 [Compound 5] |  | 
 | > 10 |  | COc1cccc(NC(=O)[C@H](C)n2c(=O)[nH]c3ccccc3c2=O)c1 [Compound 6] |  | 
 | 3.25 ± 0.21 |  | COc1cccc(NC(=O)[C@H](CC(C)C)n2c(=O)[nH]c3ccccc3c2=O)c1 [Compound 7] |  | IC50 (P. falciparum 3D7 [2]; [5]): 1 to 3 µM
 | 0.586 ± 0.032 |  | CCC(C(=O)Nc1cccc(OC)c1)n1c(=O)[nH]c2ccccc2c1=O (stereo not drawn) [Compound 8] | potent sub-micromolar activity | 
 | 1.11 ± 0.1 |  | CCC[C@@H](C(=O)Nc1cccc(OC)c1)n1c(=O)[nH]c2ccccc2c1=O [Compound 9] |  | IC50 (P. falciparum 3D7 [2]; [5]): 1 to 3 µM
> 20 |  | 0.036 ± 0.005 | CC(C)[C@@H](C(=O)Nc1cccc(F)c1)n1c(=O)[nH]c2ccccc2c1=O [Compound 21] | excellent activity | 
> 20 |  | 0.022 ± 0.005 | CC(C)[C@@H](C(=O)Nc1cccc(Cl)c1)n1c(=O)[nH]c2ccccc2c1=O [Compound 24] | excellent activity | 
